Measured values: PubChem BioAssay AID2823 (Broad Institute, 2010)
pIC50: −log10 of the molar value. Activity calls are given as the source filed them. No rule for the calls is given here.

The compounds below were run against RanGTP-importin-beta complex (human Ran / KPNB1) (assay: disruptors of RanGTP/KPNB1 binding – biochemical, FRET, CFP/YFP, cell-free homogeneous, confirmation (AID 2823)). Details: CFP-Ran/YFP-importin-beta FRET ratio.

Structure (SMILES) | IC50 | pIC50
CCOC(=O)N1CCN(c2cc(=O)n(Cc3ccc(F)cc3)c(=O)[nH]2)CC1 | > 50 µM (inactive) | 
CC(OC(=O)CNC(=O)c1cccc(F)c1)C(=O)NC1CCCCC1C (stereo unspecified) | > 50 µM (inactive) | 
Oc1c(CN2CCN(c3ccc(F)cc3)CC2)cc(Cl)c2cccnc12 | > 50 µM (inactive) | 
CCOC(=O)c1c(N)n(CCOC(=O)c2cccs2)c2nc3ccccc3nc12 |  | 4.41
N#CC1=C(N)Oc2cc3c(cc2C1c1ccc(Cl)cc1)OCO3 (stereo unspecified) | > 50 µM (inactive) | 
CCCn1nc(NC(=O)CC(C)C)c2cc3cccc(C)c3nc21 |  | 5.24
O=C(c1ccco1)c1cc2c(ccc3ccccc32)oc1=O |  | 4.60
COc1ccc(N2C(=O)c3ccccc3NC2c2cccnc2)cc1 (stereo unspecified) | > 50 µM (inactive) | 
CC1=NN(C(=O)Cn2nc([N+](=O)[O-])cc2C)C(O)(C(F)(F)F)C1 (stereo unspecified) | > 50 µM (inactive) | 
Cc1nn(-c2ccccc2)c2sc(C(=O)NC3CCCCC3)cc12 | > 50 µM (inactive) | 
CCOCCCNC(=S)NCCNc1nc2c(C)cccc2cc1C#N |  | 4.44
CCOC(=O)C1CCN(c2cc(=O)n(C3CCCCC3)c(=O)[nH]2)CC1 | > 50 µM (inactive) | 
CC(=O)c1ccc(-c2ccc(Cn3c(C)nc4cc(N)c(C)nc43)cc2)cc1 | > 50 µM (inactive) | 
COc1ccc(-c2c(C)sc(NC(=O)c3ccnn3C)c2C#N)cc1 | > 50 µM (inactive) | 
Cc1[nH]c2ccccc2c1/C=C/c1nc2ccccc2c(=O)n1CCO | > 50 µM (inactive) | 
CCCC(C)c1nnc(NC(=O)C2CC(=O)N(c3ccc(OCC)cc3)C2)s1 (stereo unspecified) | > 50 µM (inactive) | 
COc1ccccc1Nc1c2ccccc2nc2ccccc12 | > 50 µM (inactive) | 
CCOC(=O)c1sc(N/N=C/c2cc(Br)c(O)c(OC)c2)nc1C | > 50 µM (inactive) | 
Cc1c(NC2=CC(=O)CCC2)c(=O)n(-c2ccccc2)n1C | > 50 µM (inactive) | 
CCn1c(SCC(=O)N(Cc2ccccc2)C2CCS(=O)(=O)C2)nc2ccccc2c1=O (stereo unspecified) | > 50 µM (inactive) | 
COc1ccccc1NC(=O)c1cc2ccccc2nc1C | > 50 µM (inactive) | 
CC(=O)[C@@H]1[C@@H](C)N(Cc2ccccc2)C(=O)N[C@H]1c1cccc(C(F)(F)F)c1 | > 50 µM (inactive) | 
CCN1/C(=C/C=C/c2sc3ccccc3[n+]2CC)Sc2ccccc21 |  | 4.78
Clc1cccc(-c2ccc(C=Nc3ccc(N4CCOCC4)cc3)o2)c1Cl | > 50 µM (inactive) | 
Oc1ccccc1/C=N/Nc1cc(N2CCCC2)nc(N2CCCC2)n1 | > 50 µM (inactive) | 
CC(C)NC(=O)NC(=O)COC(=O)c1ccccc1O | > 50 µM (inactive) | 

Structure (SMILES) | IC50 | pIC50
CC(=O)Nc1cc(C(=O)N(C)Cc2ccco2)ccc1Sc1ccc(Cl)cc1 | > 50 µM (inactive) | 
CCSc1nnc(-c2cc(Br)ccc2N=Cc2c(C)[nH]n(-c3ccccc3)c2=O)c(=O)[nH]1 | > 50 µM (inactive) | 
O=C(NCc1ccccc1C(F)(F)F)C1CC(c2ccc(C(F)(F)F)cc2)=NO1 (stereo unspecified) | > 50 µM (inactive) | 
C=CCn1c(C)c(C(C)=O)c(N2CCN(C(c3ccccc3)c3ccccc3)CC2)nc1=S | > 50 µM (inactive) | 
O=C(CN1C(=O)NC2(CCCC2)C1=O)Nc1nc2c(F)cc(F)cc2s1 | > 50 µM (inactive) | 
N#Cc1ccccc1NC(=O)C1CC(=O)N(c2ccc3c4c(cccc24)CC3)C1 (stereo unspecified) | > 50 µM (inactive) | 
CCc1nc(N)c(C#N)c(-c2ccc(F)cc2)c1C | > 50 µM (inactive) | 
CCOc1ccc(Nc2c3ccccc3nc3ccccc23)cc1 | > 50 µM (inactive) | 
CCOC(=O)c1c(NC(=O)c2cccc(N3C(=O)CCC3=O)c2)sc2c1CCN(CC)C2 | > 50 µM (inactive) | 
COc1ccc(NC(=O)c2ccc3snnc3c2)cc1 | > 50 µM (inactive) | 
N#C/C(=C/c1ccc(N2CCOCC2)o1)C(=O)N1CCOCC1 |  | 5.35
CCOC(=O)c1c(NC(=O)CN2CCCc3ccccc32)sc(C(C)=O)c1C | > 50 µM (inactive) | 
c1ccc2c(c1)nc(NCC1CCCO1)c1nnnn12 (stereo unspecified) |  | 4.52
CCN1CCc2c(sc(NC(=O)C3CCCCC3)c2C(=O)OC)C1 | > 50 µM (inactive) | 
CC1CCCCN1C(=O)Cn1c(=O)oc2cc(S(=O)(=O)N3CCCC3)ccc21 (stereo unspecified) | > 50 µM (inactive) | 
Oc1ccc(/C=N/Nc2cc(N3CCOCC3)nc(N3CCOCC3)n2)cc1 | > 50 µM (inactive) | 
Cc1ccc(C2=CC(c3ccccc3)n3ncnc3N2)c(C)c1 (stereo unspecified) | > 50 µM (inactive) | 
CC1(C)CC(=O)C=C(Nc2ccc(S(N)(=O)=O)cc2)C1 | > 50 µM (inactive) | 
CC1CC(C)CN(c2cc(=O)n(Cc3ccc(F)cc3)c(=O)[nH]2)C1 (stereo unspecified) | > 50 µM (inactive) | 
CC(NCc1cccs1)C(=O)NC1CCCCC1 (stereo unspecified) | > 50 µM (inactive) | 
CC1=NC(Nc2nc(C)c3ccccc3n2)=NC(C)(C)C1 | > 50 µM (inactive) | 
CCOCCCNC(=O)/C(C#N)=C/c1cc(Br)c(O)c(Br)c1 |  | 4.90
CCC(=O)N(CC(=O)Nc1sc(C)c(C)c1C(N)=O)C1CCCC1 | > 50 µM (inactive) | 
NC(=O)N/N=C/c1ccccc1OC(=O)c1cc2ccccc2oc1=O | > 50 µM (inactive) | 
Cc1cc(C(=O)O)ccc1-c1ccc(/C=C2\NC(=O)N(Cc3ccccc3Cl)C2=O)o1 |  | 4.97
CC(C)(C)Nc1c2ccccc2nc2ccccc12 | > 50 µM (inactive) | 

Structure (SMILES) | IC50 | pIC50
COc1ccc(CCn2c(C)nc3ccccc3c2=O)cc1OC | > 50 µM (inactive) | 
CCN(CC)S(=O)(=O)c1ccc(NC(=O)c2cccc3c2C(=O)N(CCOC)C3)cc1 | > 50 µM (inactive) | 
O=C(Cn1nnc(-c2ccncc2)n1)NCCc1ccccc1 | > 50 µM (inactive) | 
Cc1cccc2cc(C#N)c(NCCNC(=O)COc3ccccc3)nc12 | > 50 µM (inactive) | 
CCCOc1ccc(C2C(C(=O)OC)=CN(CCOC)C=C2C(=O)OC)cc1 |  | 4.91
COc1ccc(CCNC(=O)c2cc3c(=O)n4ccccc4nc3n(C3CCCCC3)c2=N)cc1OC |  | 4.63
COCc1cc(CN2CCN(C)CC2)c(O)c2ncccc12 | > 50 µM (inactive) | 
CO/N=C\c1cc(C(=O)c2ccc(Cl)cc2Cl)cn1C | > 50 µM (inactive) | 
OCCNCc1cccc(OCc2ccccc2Cl)c1 | > 50 µM (inactive) | 
CN(C)c1nc(-c2ccccc2)cc(C(F)(F)F)c1C#N |  | 4.97
COc1ccc(N2Cc3ccccc3/C2=N\C(=O)Nc2ccccc2)cc1 | > 50 µM (inactive) | 
O=C(c1cccc(-c2ccccc2)c1)N1CC[C@@H](N2CCC(O)CC2)[C@H](O)C1 | > 50 µM (inactive) | 
CCOC(=O)C1=C(N)Oc2ccc3ccccc3c2C1c1ccc(O)c(OC)c1 (stereo unspecified) | > 50 µM (inactive) | 
CCn1nc(NC(=O)c2ccncc2)c2cc3ccc(C)cc3nc21 |  | 4.33
CC(C)c1cc(N2CCN(C(=O)c3ccco3)CC2)n2c(nc3ccccc32)c1C#N |  | 4.61
COCCOC(=O)C1=C(C)NC(=O)NC1c1cccc2ccccc12 (stereo unspecified) | > 50 µM (inactive) | 
Clc1ccc(/C=C/c2ncc3ccccn23)cc1 |  | 4.90
N#Cc1c(N)[nH]c(=S)c(C#N)c1-c1ccccc1 | > 50 µM (inactive) | 
CCc1ccc(S(=O)(=O)Nc2ccc(-c3nc4cccnc4s3)cc2)s1 | > 50 µM (inactive) | 
N#Cc1c(/N=C/c2ccc(O)cc2O)sc2c1C1CCN2CC1 | > 50 µM (inactive) | 
COc1cc(-c2nc3cnccn3c2Nc2ccc(C(C)C)cc2)ccc1O | > 50 µM (inactive) | 
Cc1cccc(CN2CCc3c(OCC(=O)N4CCCc5ccccc54)cccc3C2=O)c1 | > 50 µM (inactive) | 
CCOC(=O)C1CCN(C(=O)COC(=O)c2ccc3[nH]c4c(c3c2)CCCC4)CC1 | > 50 µM (inactive) | 
CCCC1C(C#N)=C(N)Oc2cc(C)n(C)c(=O)c21 (stereo unspecified) | > 50 µM (inactive) | 
Cc1[nH]nc2c1C(c1ccoc1)C(C#N)=C(N)O2 (stereo unspecified) | > 50 µM (inactive) | 
CC(C)(C)NC(=O)C(c1ccco1)N(Cc1ccc(F)cc1)C(=O)c1snc(C(N)=O)c1N (stereo unspecified) | > 50 µM (inactive) | 

Structure (SMILES) | IC50 | pIC50
COc1ccc(OCC(=O)NNc2c3ccccc3nc3ccccc23)cc1 | > 50 µM (inactive) | 
CS(=O)(=O)c1nsc2nc(=O)c(/C=C3\C=Nc4ccccc43)c(N)n12 |  | 4.82
N#Cc1c2ncn(CC(=O)c3ccc(Br)cc3)c(=O)c2c2n1CCC2 | > 50 µM (inactive) | 
Cc1cc(C)c2c(n1)nn1c(NCCCN(C)C)cc(C)nc21 |  | 4.65
CC1CN(Cc2cc(=O)oc3cc(O)ccc23)CC(C)O1 (stereo unspecified) |  | 4.72
O=C(O)c1ccccc1C(=O)Nc1ccc(Br)c2cccnc12 | > 50 µM (inactive) | 
Cc1ccc(Cn2ccc(NC(=O)c3noc4c3CCc3ccccc3-4)n2)cc1 | > 50 µM (inactive) | 
COc1ccc(CNc2ccc3c(c2)ncn3-c2ccccc2OC)cc1 | > 50 µM (inactive) | 
CNC(=O)c1c(C)[nH]c(=S)c(C#N)c1-c1ccco1 | > 50 µM (inactive) | 
C=CCn1c(=O)c(C(=O)Nc2ccc(C)cc2)c(O)c2ccccc21 | > 50 µM (inactive) | 
O=C(Nc1nc2ccc(S(=O)(=O)N3CCCCC3)cc2s1)c1cccnc1 | > 50 µM (inactive) | 
O=C(C1CCCCC1)N1CC(=O)N2CCc3ccccc3C2C1 (stereo unspecified) | > 50 µM (inactive) | 
O=C(Cc1ccccc1C(=O)O)Nc1cccc2ccccc12 | > 50 µM (inactive) | 
Cc1ccc(S(=O)(=O)/C(C#N)=C/c2c(N3CCC(C(N)=O)CC3)nc3ccccn3c2=O)cc1 | > 50 µM (inactive) | 
O=c1c2cc(NC(=S)N3CCC(N4CCCCC4)CC3)ccc2nc2n1CCCCC2 | > 50 µM (inactive) | 
O=C(O)Cn1cc(/C=C2\SC(=O)N(c3ccccc3)C2=O)c2ccccc21 |  | 4.40
CC/C(=N\NC(=O)c1cc(C2CC2)[nH]n1)c1ccccc1 | > 50 µM (inactive) | 
c1ccc(-n2nnnc2-c2cnc(-c3cccnc3)nc2-c2cccs2)cc1 | > 50 µM (inactive) | 
CCN1CCc2nc(NC(=O)c3cc(F)c(F)cc3Cl)sc2C1 | > 50 µM (inactive) | 
Cc1ccc(N=Cc2cc3c(cc2[N+](=O)[O-])OCO3)cc1[N+](=O)[O-] | > 50 µM (inactive) | 
Cc1ccc(-c2ccc(/C=C(\C#N)C(N)=S)n2C)cc1 | > 50 µM (inactive) | 
COCCNC(=O)/C(C#N)=C/c1c(N2CCN(c3ccc(OC)cc3)CC2)nc2c(C)cccn2c1=O |  | 4.41
CCN(CC)C(=O)Oc1ccc2c(c1)O/C(=C\c1ccco1)C2=O |  | 5.10
